Data taken from ChEMBL document CHEMBL3045535, “Evaluation of lufenuron as a chemosterilant against fruit flies of the genus Anastrepha (Diptera: Tephritidae)” (2010).
Activity calls are given as the source filed them. No cut-off for these calls is given here.

How the values were obtained:
Anastrepha ludens [1] = test: Reduction of fertility in 7 days old adult of Anastrepha ludens assessed as reduction of egg hatching at 10 mg/g treated with diet measured after 3 days oviposition; type: functional; parameters: scale not given: the % may be the effect or the level left
Anastrepha striata [2] = test: Reduction of fertility in 7 days old adult of Anastrepha striata assessed as reduction of egg hatching at 10 mg/g treated with diet measured after 5 days oviposition; type: functional; parameters: scale not given: the % may be the effect or the level left
Anastrepha obliqua [3] = test: Reduction of fertility in 7 days old adult of Anastrepha obliqua assessed as reduction of egg hatching at 1 mg/g treated with diet measured after 9 days oviposition; type: functional; parameters: scale not given: the % may be the effect or the level left
Anastrepha striata [4] = test: Reduction of fertility in 7 days old adult of Anastrepha striata assessed as reduction of egg hatching at 0.1 mg/g treated with diet measured after 11 days oviposition; type: functional; parameters: scale not given: the % may be the effect or the level left
Anastrepha obliqua [5] = test: Effect on fecundity in 7 days old adult of Anastrepha obliqua at 0.1 to 30 mg/g treated with diet after 24 hr; type: functional, organism-based
Anastrepha serpentina [6] = test: Reduction of fertility in 7 days old adult of Anastrepha serpentina assessed as reduction of egg hatching at 1 mg/g treated with diet measured after 9 days oviposition; type: functional; parameters: scale not given: the % may be the effect or the level left
Anastrepha obliqua [7] = test: Reduction of fertility in 7 days old adult of Anastrepha obliqua assessed as reduction of egg hatching at 0.5 mg/g treated with diet measured after 9 days oviposition; type: functional; parameters: scale not given: the % may be the effect or the level left
Anastrepha ludens [8] = test: Reduction of fertility in 7 days old adult of Anastrepha ludens assessed as reduction of egg hatching at 0.5 mg/g treated with diet measured after 11 days oviposition; type: functional; parameters: scale not given: the % may be the effect or the level left
Anastrepha ludens [9] = test: Effect on fecundity in 7 days old adult of Anastrepha ludens at 0.1 to 30 mg/g treated with diet after 24 hr; type: functional, organism-based
Anastrepha obliqua [10] = test: Reduction of fertility in 7 days old adult of Anastrepha obliqua assessed as reduction of egg hatching at 30 mg/g treated with diet measured after 9 days oviposition; type: functional; parameters: scale not given: the % may be the effect or the level left
Anastrepha serpentina [11] = test: Reduction of fertility in 7 days old adult of Anastrepha serpentina assessed as reduction of egg hatching at 0.1 mg/g treated with diet measured after 7 days oviposition; type: functional; parameters: scale not given: the % may be the effect or the level left
Anastrepha obliqua [12] = test: Reduction of fertility in 7 days old adult of Anastrepha obliqua assessed as reduction of egg hatching at 1 mg/g treated with diet measured after 1 day oviposition; type: functional; parameters: scale not given: the % may be the effect or the level left
Anastrepha ludens [13] = test: Reduction of fertility in 7 days old adult of Anastrepha ludens assessed as reduction of egg hatching at 0.1 mg/g treated with diet measured after 11 days oviposition; type: functional; parameters: scale not given: the % may be the effect or the level left
Anastrepha ludens [14] = test: Reduction of fertility in 7 days old adult of Anastrepha ludens assessed as reduction of egg hatching at 10 mg/g treated with diet measured after 1 day oviposition; type: functional; parameters: scale not given: the % may be the effect or the level left
Anastrepha striata [15] = test: Reduction of fertility in 7 days old adult of Anastrepha striata assessed as reduction of egg hatching at 1 mg/g treated with diet measured after 9 days oviposition; type: functional; parameters: scale not given: the % may be the effect or the level left
Anastrepha striata [16] = test: Reduction of fertility in 7 days old adult of Anastrepha striata assessed as reduction of egg hatching at 10 mg/g treated with diet measured after 11 days oviposition; type: functional; parameters: scale not given: the % may be the effect or the level left
Anastrepha obliqua [17] = test: Reduction of fertility in 7 days old adult of Anastrepha obliqua assessed as reduction of egg hatching at 5 mg/g treated with diet measured after 11 days oviposition; type: functional; parameters: scale not given: the % may be the effect or the level left
Anastrepha ludens [18] = test: Reduction of fertility in 7 days old adult of Anastrepha ludens assessed as reduction of egg hatching at 5 mg/g treated with diet measured after 5 days oviposition; type: functional; parameters: scale not given: the % may be the effect or the level left
Anastrepha striata [19] = test: Reduction of fertility in 7 days old adult of Anastrepha striata assessed as reduction of egg hatching at 0.5 mg/g treated with diet measured after 9 days oviposition; type: functional; parameters: scale not given: the % may be the effect or the level left
Anastrepha serpentina [20] = test: Reduction of fertility in 7 days old adult of Anastrepha serpentina assessed as reduction of egg hatching at 0.5 mg/g treated with diet measured after 5 days oviposition; type: functional; parameters: scale not given: the % may be the effect or the level left
Anastrepha obliqua [21] = test: Reduction of fertility in 7 days old adult of Anastrepha obliqua assessed as reduction of egg hatching at 0.5 mg/g treated with diet measured after 3 days oviposition; type: functional; parameters: scale not given: the % may be the effect or the level left
Anastrepha obliqua [22] = test: Reduction of fertility in 7 days old adult of Anastrepha obliqua assessed as reduction of egg hatching at 10 mg/g treated with diet measured after 9 days oviposition; type: functional; parameters: scale not given: the % may be the effect or the level left
Anastrepha ludens [23] = test: Reduction of fertility in 7 days old adult of Anastrepha ludens assessed as reduction of egg hatching at 0.1 mg/g treated with diet measured after 5 days oviposition; type: functional; parameters: scale not given: the % may be the effect or the level left
Anastrepha striata [24] = test: Reduction of fertility in 7 days old adult of Anastrepha striata assessed as reduction of egg hatching at 0.5 mg/g treated with diet measured after 7 days oviposition; type: functional; parameters: scale not given: the % may be the effect or the level left
Anastrepha serpentina [25] = test: Reduction of fertility in 7 days old adult of Anastrepha serpentina assessed as reduction of egg hatching at 0.5 mg/g treated with diet measured after 7 days oviposition; type: functional; parameters: scale not given: the % may be the effect or the level left
Anastrepha ludens [26] = test: Reduction of fertility in 7 days old adult of Anastrepha ludens assessed as reduction of egg hatching at 0.5 mg/g treated with diet measured after 3 days oviposition; type: functional; parameters: scale not given: the % may be the effect or the level left
Anastrepha ludens [27] = test: Reduction of fertility in 7 days old adult of Anastrepha ludens assessed as reduction of egg hatching at 5 mg/g treated with diet measured after 1 day oviposition; type: functional; parameters: scale not given: the % may be the effect or the level left
Anastrepha ludens [28] = test: Reduction of fertility in 7 days old adult of Anastrepha ludens assessed as reduction of egg hatching at 30 mg/g treated with diet measured after 9 days oviposition; type: functional; parameters: scale not given: the % may be the effect or the level left
Anastrepha ludens [29] = test: Effect on fertility in 7 days old adult male of Anastrepha ludens at 30 mg/g treated with diet after 24 hr in presence of untreated adult female of Anastrepha ludens; type: functional, organism-based
Anastrepha obliqua [30] = test: Reduction of fertility in 7 days old adult of Anastrepha obliqua assessed as reduction of egg hatching at 10 mg/g treated with diet measured after 7 days oviposition; type: functional; parameters: scale not given: the % may be the effect or the level left
Anastrepha obliqua [31] = test: Reduction of fertility in 7 days old adult of Anastrepha obliqua assessed as reduction of egg hatching at 10 mg/g treated with diet measured after 1 day oviposition; type: functional; parameters: scale not given: the % may be the effect or the level left
Anastrepha serpentina [32] = test: Reduction of fertility in 7 days old adult of Anastrepha serpentina assessed as reduction of egg hatching at 0.5 mg/g treated with diet measured after 3 days oviposition; type: functional; parameters: scale not given: the % may be the effect or the level left
Anastrepha ludens [33] = test: Reduction of fertility in 7 days old adult of Anastrepha ludens assessed as reduction of egg hatching at 5 mg/g treated with diet measured after 3 days oviposition; type: functional; parameters: scale not given: the % may be the effect or the level left
Anastrepha serpentina [34] = test: Effect on fertility in 7 days old adult male of Anastrepha serpentina at 30 mg/g treated with diet after 24 hr in presence of untreated adult female of Anastrepha serpentina; type: functional, organism-based
Anastrepha obliqua [35] = test: Reduction of fertility in 7 days old adult of Anastrepha obliqua assessed as reduction of egg hatching at 0.5 mg/g treated with diet measured after 7 days oviposition; type: functional; parameters: scale not given: the % may be the effect or the level left
Anastrepha striata [36] = test: Effect on fecundity in 7 days old adult male of Anastrepha striata at 30 mg/g treated with diet after 24 hr in presence of untreated adult female of Anastrepha striata; type: functional, organism-based
Anastrepha serpentina [37] = test: Reduction of fertility in 7 days old adult of Anastrepha serpentina assessed as reduction of egg hatching at 1 mg/g treated with diet measured after 7 days oviposition; type: functional; parameters: scale not given: the % may be the effect or the level left
Anastrepha ludens [38] = test: Reduction of fertility in 7 days old adult of Anastrepha ludens assessed as reduction of egg hatching at 1 mg/g treated with diet measured after 1 day oviposition; type: functional; parameters: scale not given: the % may be the effect or the level left
Anastrepha serpentina [39] = test: Reduction of fertility in 7 days old adult of Anastrepha serpentina assessed as reduction of egg hatching at 5 mg/g treated with diet measured after 3 days oviposition; type: functional; parameters: scale not given: the % may be the effect or the level left
Anastrepha ludens [40] = test: Reduction of fertility in 7 days old adult of Anastrepha ludens assessed as reduction of egg hatching at 1 mg/g treated with diet measured after 5 days oviposition; type: functional; parameters: scale not given: the % may be the effect or the level left
Anastrepha ludens [41] = test: Reduction of fertility in 7 days old adult of Anastrepha ludens assessed as reduction of egg hatching at 1 mg/g treated with diet measured after 11 days oviposition; type: functional; parameters: scale not given: the % may be the effect or the level left

Question: Which results are given for `O=C(NC(=O)c1c(F)cccc1F)Nc1cc(Cl)c(OC(F)(F)C(F)C(F)(F)F)cc1Cl` (racemic) [LUFENURON]?
Answer: Activity (Anastrepha ludens [1]): 4.7%; Activity (Anastrepha striata [2]): 2%; Activity (Anastrepha obliqua [3]): 0%; Activity (Anastrepha striata [4]): 72.7%; Activity (Anastrepha obliqua [5]): inactive; Activity (Anastrepha serpentina [6]): 95.6%; Activity (Anastrepha obliqua [7]): 4.7%; Activity (Anastrepha ludens [8]): 26.7%; Activity (Anastrepha ludens [9]): inactive; Activity (Anastrepha obliqua [10]): 1.3%; Activity (Anastrepha serpentina [11]): 96.7%; Activity (Anastrepha obliqua [12]): 0%; Activity (Anastrepha ludens [13]): 66.7%; Activity (Anastrepha ludens [14]): 6%; Activity (Anastrepha striata [15]): 4.7%; Activity (Anastrepha striata [16]): 6%; Activity (Anastrepha obliqua [17]): 0%; Activity (Anastrepha ludens [18]): 20%; Activity (Anastrepha striata [19]): 40.7%; Activity (Anastrepha serpentina [20]): 93.3%; Activity (Anastrepha obliqua [21]): 2.7%; Activity (Anastrepha obliqua [22]): 0%; Activity (Anastrepha ludens [23]): 30.7%; Activity (Anastrepha striata [24]): 19.3%; Activity (Anastrepha serpentina [25]): 86.7%; Activity (Anastrepha ludens [26]): 12%; Activity (Anastrepha ludens [27]): 19.3%; Activity (Anastrepha ludens [28]): 15.3%; Activity (Anastrepha ludens [29]): inactive; Activity (Anastrepha obliqua [30]): 1.3%; Activity (Anastrepha obliqua [31]): 0%; Activity (Anastrepha serpentina [32]): 87.3%; Activity (Anastrepha ludens [33]): 16%; Activity (Anastrepha serpentina [34]): inactive; Activity (Anastrepha obliqua [35]): 0.7%; Activity (Anastrepha striata [36]): inactive; Activity (Anastrepha serpentina [37]): 92.5%; Activity (Anastrepha ludens [38]): 8%; Activity (Anastrepha serpentina [39]): 58.9%; Activity (Anastrepha ludens [40]): 8%; Activity (Anastrepha ludens [41]): 40%
